Data as given in article PMC7466040, “Sevanol and Its Analogues: Chemical Synthesis, Biological Effects and Molecular Docking” (Pharmaceuticals, 2020).

Target: T1, rat ASIC1a (Rattus norvegicus, UniProt P55926)
T1 construct: expressed in transfected cells; host or cells: Xenopus laevis oocytes (cRNA injection)
T1 sequence (P55926 1-526): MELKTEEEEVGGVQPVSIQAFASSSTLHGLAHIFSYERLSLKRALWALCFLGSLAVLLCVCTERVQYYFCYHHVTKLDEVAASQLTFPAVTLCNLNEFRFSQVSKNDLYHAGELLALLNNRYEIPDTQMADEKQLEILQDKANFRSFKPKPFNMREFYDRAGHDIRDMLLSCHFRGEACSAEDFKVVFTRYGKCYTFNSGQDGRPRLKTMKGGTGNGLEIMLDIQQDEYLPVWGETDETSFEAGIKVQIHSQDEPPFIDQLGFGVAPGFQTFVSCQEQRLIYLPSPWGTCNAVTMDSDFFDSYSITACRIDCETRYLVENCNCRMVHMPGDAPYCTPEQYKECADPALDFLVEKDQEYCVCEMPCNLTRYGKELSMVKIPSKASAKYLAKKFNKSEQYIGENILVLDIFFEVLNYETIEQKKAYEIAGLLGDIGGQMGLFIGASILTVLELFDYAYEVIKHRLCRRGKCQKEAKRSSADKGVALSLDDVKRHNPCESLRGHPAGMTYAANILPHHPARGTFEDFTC
Test: Two-electrode voltage clamp on X. laevis oocytes expressing rat ASIC1a
Format: cell-based
Procedure: Testing the activity of synthetic sevanol (s706) (as a mixture of 75% of sevanol and 25% of isosevanol) and its analogues (s590, EA, and s788) was carried out by the standard two-electrode voltage clamp method on X. laevis oocytes expressing rat ASIC1a and ASIC3 channels. The activation of the channels was performed using a rapid change of the solution from conditioning pH 7.4 to a solution with pH 5.5. Sevanol and its two analogues, s590 and EA, inhibited ASIC1a and ASIC3 channels.
Oocytes were harvested from female frogs anaesthetized with tricaine methane sulfonate (MS222) (0.17% solution), and the surgery was performed in an ice bath to avoid heavy bleeding. Defolliculated stage IV and V cells were injected with 2.5 and 10 ng cRNA, synthesized from PCi plasmids containing the rat ASIC1a and rat ASIC3 isoforms, respectively, using the Nanoliter 2000 microinjection system (World Precision Instruments, USA). The injected oocytes were kept for 2–3 days at 17 to 19 °C, and then for up to 5 days at 15 °C in a ND96 medium containing (in mM) 96 NaCl, 2 KCl, 1.8 CaCl2, 1 MgCl2, and 5 HEPES titrated to pH 7.4 with NaOH supplemented with gentamycin (50 μg/mL). Two-electrode voltage clamp recordings were performed at a holding potential of −50 mV using a GeneClamp 500 amplifier (Axon Instruments), and the data were filtered at 20 Hz and digitized at 100 Hz by an AD converter L780 (LCard, Russia). Microelectrodes were filled with 3 M KCl. The conditioning bath solution was ND96; the pH was adjusted to 7.4. The activating test solution was constructed based on the ND-96 buffer, in which 5 mM HEPES was replaced with 10 mM MES and pH was adjusted to 5.5. A computer-controlled valve system was used to achieve a rapid solution exchange in the recording chamber. A four parameter logistic equation was used for the curve-fitting analysis: F(x) = ((a1 − a2)/(1 + (x/x0)n)) + a2, where x is the concentration of the compound; F(x) is the response value at a given concentration of the compound; a1 is the control response value (fixed at 100%); x0 is the IC50 value; n is the Hill coefficient (slope factor); and a2 is the response value at the maximal inhibition (% of control).
Figure 2 The inhibitory activity of sevanol (s706) and its analogues. Currents were elicited by a drop from pH 7.4 to 5.5; the holding potential was −50 mV; (A,C) are dose–response curves for s706, s590 and EA inhibitory effects on ASIC1a and ASIC3 channels, respectively; (B,D) are reciprocal IC50 values for s706, s590 and EA inhibitory effects on ASIC1a and ASIC3 channels, respectively. The data were fitted by the logistic equation. Each point is the mean ± SEM of 5–6 measurements. * p < 0.05, ** p < 0.005.

IC50 (X. laevis oocytes, pH drop 7.4 to 5.5, holding potential −50 mV, mean ± SEM of 5–6, read-out: IC50, inhibition of ASIC1a current): 228 ± 37.4 µM
maximal current block, ASIC1a (pH 7.4 to 5.5, effect reversible): 100%
SMILES: O=C(O)CC(C(=O)O)C(OC(=O)C1=Cc2cc(O)c(O)cc2C(c2ccc(O)c(O)c2)C1C(=O)OC(C(=O)O)C(CC(=O)O)C(=O)O)C(=O)O (centres unmarked) [sevanol]
